Test results: patent US20020197700A1, “Receptor of the EDb-fibronectin domains” (Schering AG, priority 2000, published 2002)
Entries after “also recorded” stand apart in the source; their conditions may differ.

Legend:
endothelial cells [1] = assay: adhesion test to ED-B-coated plates after pre-incubation of the cells with synthetic ED-B peptides; type: cell-based; conditions: cells pre-incubated with 250 μM peptide; A595
Protocol: Bowls of a 96-bowl plate (Nunc) are covered with protein for one hour at 37° C. With small proteins (<20 kDa) or peptides, it is recommended to allow the latter to dry on the plate (overnight without a cover under the sterile bank). The bowls are then saturated with 1% BSA for 1 hour at 37° C. Cells are dissolved in 1×trypsin, washed with 2% serum to inactivate the trypsin, and resuspended in medium. If antibodies or peptides are to be tested, the cells are pre-incubated in suspension with the latter for 30 minutes at 37° C. 10^4 cells per bowl (96-bowl plate) are incubated in a volume of 50-100 μl for 1 hour at 37° C. The supernatant is carefully poured off, the plate can be left inverted to drain on a paper towel for one minute and attached cells are stained with crystal violet/glutaric aldehyde for 15 minutes and attached. The bowls are washed three times with PBS, and the cells are then lysed by adding 2% SDS (15 minutes in the shaker). The absorption at 595 nm is measured. After washing three times with water, the cells, if desired, can be stained again.
The adherence was determined by the determination of the extinction at 595 nm (A595). The peptide designations that are applied in the figure are explained in FIG. 6. In this case, peptide sequence No. 043 corresponds to the sequence that is represented in SEQ ID NO: 1, peptide sequence No. 553 corresponds to SEQ ID NO: 2, peptide sequence No. 038 corresponds to SEQ ID NO: 3. A higher A595 value corresponds to a non-inhibited adherence, while a lower A595 value corresponds to an inhibition of the adherence by the corresponding peptide.
The method described for FIG. 4 was followed.

stromal cells (SC) = assay: proliferation assay (MTS) of stromal cells; type: cell-based, human; conditions: SC/gelatin; bFGF+ED-B; 3 days
Protocol: (§1) 1000 cells per bowl were incubated in 96-bowl plates. Soluble ED-B (10 μg/l) was added to the medium during the proliferation assay. After three days, the cell count was determined with the MTS assay. The proliferation of cells was induced by a basic […] growth factor (bFGF). […] In the case of human stromal cells on gelatin (SC/gelatin), even in the absence of bFGF proliferation occurred that considerably exceeded that of human endothelial cells.
(§2) For the proliferation assay, the following experimental method was followed:
(§3) Material: 96-bowl plate (flat-bottomed), Nunc
(§4) Medium: MCDB 131, Pen/Strep, amphotericin (0.25 μg/ml), heparin (20 μg/ml), heat-inactivated FCS (5%)
Cells, 500-1000 per bowl (96-bowl plate) in 100 μl, are cultivated for 3 days in a medium with bFGF (1-3 ng/ml) or VEGF (30-50 ng/ml). The exact amount should be determined for each batch by titration: the minimum concentration that reaches the maximum proliferation stimulation is optimal. A synchronization of the cells before the experiment is not necessary, but can be done. After 3 days, the cell count is determined with the MTS kit (Promega) according to manufacturer's information. It is recommended to measure the absorption at several points to obtain a maximum absorption in the linear range (0.5; 1; 2; 4 hours). […]

[2] = test system: HUVEC (Human Umbilical Vein Endothelial Cells)-spheroids; assay: splintering test (tube formation test) of endothelial cell spheroids in collagen; type: cell-based; conditions: for induction of capillary-like structures (tube formation); penetration of endothelial cells in collagen gels: over basal bFGF-induced penetration
Protocol: For the splintering test (tube formation test), the following experimental method was used:
Medium: MCDB 131, glutamine, Pen/Strep, amphotericin (0.25 μg/ml), heparin (20 μg/ml), heat-inactivated FCS (10%)
Growth medium: Medium with 2 ng/ml of bFGF and 10 ng/ml of VEGF
Endothelial cells are dissolved with trypsin/EDTA and diluted with 5000 cells/ml in medium with 0.24% methyl cellulose. 200 μl (1000 cells) each are added to bowls of a Greiner plate and incubated overnight. Round cell clusters (spheroids) are harvested with a 1 ml pipette with beveled tips and centrifuged off. Spheroids are resuspended in 1.2% methyl cellulose/FCS and mixed with neutralized collagen gel. EDb and bFGF were co-polymerized.
This peptide thus has a stimulating effect on the penetration of endothelial cells in collagen gels. This peptide therefore corresponds to the binding region of EDb and stimulates, analogously to EDb itself, the penetration of endothelial cells in the collagen.
The method described for FIG. 3 was followed.

endothelial cells (EC) = assay: proliferation assay (MTS) of endothelial cells; type: cell-based; conditions: soluble ED-B 10 μg/l, 3 days; for action on human endothelial cell proliferation: bFGF-induced
Protocol: as §1, §2, §3, §4
Cells, 500-1000 per bowl (96-bowl plate) in 100 μl, are cultivated for 3 days in a medium with bFGF (1-3 ng/ml) or VEGF (30-50 ng/ml). The exact amount should be determined for each batch by titration: the minimum concentration that reaches the maximum proliferation stimulation is optimal. A synchronization of the cells before the experiment is not necessary, but can be done. After 3 days, the cell count is determined with the MTS kit (Promega) according to manufacturer's information. It is recommended to measure the absorption at several points to obtain a maximum absorption in the linear range (0.5; 1; 2; 4 hours).
Negative control, no mitogen (no proliferation) (−bFGF/VEGF) Positive control, with mitogen (maximum stimulation) (+bFGF/VEGF)

endothelial cells [3] = assay: adhesion test of endothelial cells to coated microtiter-bowl plates; type: cell-based; conditions: plates coated with 0-40 μg/ml ED-B; 1 hour; crystal violet, A595
Protocol: As a negative control, bowls were used that were coated with 1 mg/ml of BSA (bovine serum albumin); the adhesion to BSA (<10%) was subtracted.
The adherence was quantified by staining with crystal violet, followed by a lysis with SDS. The quantification was carried out by measuring the extinction at 595 nm. A line drawn horizontally in the figure at A595 nm≈1.06 indicates the 100% adhesion to plasma-fibronectin.
For the adherence/adhesion test, the following experimental method was used:
Medium: MCDB 131, Pen/Strep, amphotericin (0.25 μg/ml), heparin (20 μg/ml), 0.1% BSA (Sigma, ethanol-precipitated)
0.1% crystal violet, 2% glutaric aldehyde in PBS, sterilized by filtration 2% SDS
Bowls of a 96-bowl plate (Nunc) are covered with protein for one hour at 37° C. With small proteins (<20 kDa) or peptides, it is recommended to allow the latter to dry on the plate (overnight without a cover under the sterile bank). The bowls are then saturated with 1% BSA for 1 hour at 37° C. Cells are dissolved in 1×trypsin, washed with 2% serum to inactivate the trypsin, and resuspended in medium. If antibodies or peptides are to be tested, the cells are pre-incubated in suspension with the latter for 30 minutes at 37° C. 10^4 cells per bowl (96-bowl plate) are incubated in a volume of 50-100 μl for 1 hour at 37° C. […] The absorption at 595 nm is measured. […]

[4] = molecular target: T1, biontinylated protein with an apparent molecular weight of 120-130 kDa (receptor of the EDb-fibronectin domains) (Homo sapiens, UniProt P05556); assay: affinity chromatography of cell lysate from surface-labeled human skin endothelial cells; type: binding; conditions: proliferating endothelial cells; EDTA elution; SDS-PAGE, Western Blot
T1 construct: proliferating endothelial cells that are biotinylated on the cell surface were lysed with a detergent; endogenous in cells; host or cells: proliferating human skin endothelial cells, surface-biotinylated, lysed in CHAPS
Protocol: In this respect, proliferating endothelial cells that are biotinylated on the cell surface were lysed with a detergent and subjected to an affinity chromatography, in which short fragments of fibronectin were coupled to sepharose with or without the inserted EDb-fibronectin domains (with the EDb-fibronectin domains=Fn-7-B-8-9, without the EDb-fibronectin domains=Fn-7-8-9). […] The elution is carried out by means of EDTA. Several fractions, described below, were collected. The fractions were then subjected to SDS-PAGE and studied with Western Blot with streptavidin-peroxidase and chemiluminescence (ECL). Traces 1 and 5 show pre-elution fractions, while traces 2, 3, 4 or 6, 7, 8 show the eluted fractions 1, 2 and 3. Traces 1-4 show the chromatography with Fn-7-8-9, while traces 5-8 show the chromatography with Fn-7-B-8-9.
Method: The cell culture bottles are washed respectively 3 times with PBS w/Ca+Mg before and after the biotinylation. Before the last washing process, the biotin buffer (1 mg/15 ml of PBS) is prepared. Into each of the bottles, 5 ml of the buffer (for 225 cm^2) or 12.5 ml (500 cm^2 plates) is pipetted into the center of the bottom, so that the volume can disperse over the entire bottom of the bottle while swinging around. The first culture bottle is then treated with half of the lysis buffer volume. […]

[5] = test system: band with an apparent molecular weight of 120-130 kDa (receptor of the EDb-fibronectin domains); assay: affinity chromatography of cell lysate from surface-labeled human skin stromal cells; type: binding; conditions: Western Blot
Protocol: Method: The lysate is first put on the column three times.
EDTA-Elution: EDTA complexes the Ca and Mg ions. As a result, the endothelial-cell proteins are eluted, which require Ca and Mg for binding. 2×4 ml of EDTA-buffer is put on the column (or on both columns) and collected in two fractions (E1 and E2/BE1 and BE2) in Falcon tubes. Then, the tube contents are mixed, and […] is pipetted off into one (or two) Eppendorf vessel(s).
The fractions or pre-elution fractions that are thus obtained were separated with SDS-PAGE and subjected to a Western Blot under reducing conditions.
In the Western Blot shown in FIG. 11, traces 1-3 show the elution of an affinity column with Fn-7-8-9, while traces 4-6 show the elution of an affinity column of Fn-7-B-8-9. Traces 1 and 4 are pre-elution factors, while traces 2, 3 or 5, 6 show fractions 1 and 2 of the respective elution run.

T1 sequence (P05556 21-798): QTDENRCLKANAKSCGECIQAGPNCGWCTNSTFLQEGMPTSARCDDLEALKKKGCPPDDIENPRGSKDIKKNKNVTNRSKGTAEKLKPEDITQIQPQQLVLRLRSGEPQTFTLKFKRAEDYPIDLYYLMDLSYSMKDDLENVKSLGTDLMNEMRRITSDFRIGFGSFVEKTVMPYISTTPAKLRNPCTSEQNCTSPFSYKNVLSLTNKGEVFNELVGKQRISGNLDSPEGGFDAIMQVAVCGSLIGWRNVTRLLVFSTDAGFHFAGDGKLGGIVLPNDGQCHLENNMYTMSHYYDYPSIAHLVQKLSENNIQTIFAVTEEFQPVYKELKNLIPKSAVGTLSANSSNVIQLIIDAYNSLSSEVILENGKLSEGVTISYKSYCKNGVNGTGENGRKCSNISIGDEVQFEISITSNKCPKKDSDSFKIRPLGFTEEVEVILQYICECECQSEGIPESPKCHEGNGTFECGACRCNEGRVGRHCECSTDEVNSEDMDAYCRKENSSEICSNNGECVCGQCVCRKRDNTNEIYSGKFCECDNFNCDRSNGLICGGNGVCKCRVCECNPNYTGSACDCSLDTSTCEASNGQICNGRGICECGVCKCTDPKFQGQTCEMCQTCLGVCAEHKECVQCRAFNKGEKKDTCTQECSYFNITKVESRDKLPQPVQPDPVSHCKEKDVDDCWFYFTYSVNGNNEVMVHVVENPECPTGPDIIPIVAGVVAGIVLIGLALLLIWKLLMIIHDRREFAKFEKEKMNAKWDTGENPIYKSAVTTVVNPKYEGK
T1 sequence (P17301 30-1181 partner): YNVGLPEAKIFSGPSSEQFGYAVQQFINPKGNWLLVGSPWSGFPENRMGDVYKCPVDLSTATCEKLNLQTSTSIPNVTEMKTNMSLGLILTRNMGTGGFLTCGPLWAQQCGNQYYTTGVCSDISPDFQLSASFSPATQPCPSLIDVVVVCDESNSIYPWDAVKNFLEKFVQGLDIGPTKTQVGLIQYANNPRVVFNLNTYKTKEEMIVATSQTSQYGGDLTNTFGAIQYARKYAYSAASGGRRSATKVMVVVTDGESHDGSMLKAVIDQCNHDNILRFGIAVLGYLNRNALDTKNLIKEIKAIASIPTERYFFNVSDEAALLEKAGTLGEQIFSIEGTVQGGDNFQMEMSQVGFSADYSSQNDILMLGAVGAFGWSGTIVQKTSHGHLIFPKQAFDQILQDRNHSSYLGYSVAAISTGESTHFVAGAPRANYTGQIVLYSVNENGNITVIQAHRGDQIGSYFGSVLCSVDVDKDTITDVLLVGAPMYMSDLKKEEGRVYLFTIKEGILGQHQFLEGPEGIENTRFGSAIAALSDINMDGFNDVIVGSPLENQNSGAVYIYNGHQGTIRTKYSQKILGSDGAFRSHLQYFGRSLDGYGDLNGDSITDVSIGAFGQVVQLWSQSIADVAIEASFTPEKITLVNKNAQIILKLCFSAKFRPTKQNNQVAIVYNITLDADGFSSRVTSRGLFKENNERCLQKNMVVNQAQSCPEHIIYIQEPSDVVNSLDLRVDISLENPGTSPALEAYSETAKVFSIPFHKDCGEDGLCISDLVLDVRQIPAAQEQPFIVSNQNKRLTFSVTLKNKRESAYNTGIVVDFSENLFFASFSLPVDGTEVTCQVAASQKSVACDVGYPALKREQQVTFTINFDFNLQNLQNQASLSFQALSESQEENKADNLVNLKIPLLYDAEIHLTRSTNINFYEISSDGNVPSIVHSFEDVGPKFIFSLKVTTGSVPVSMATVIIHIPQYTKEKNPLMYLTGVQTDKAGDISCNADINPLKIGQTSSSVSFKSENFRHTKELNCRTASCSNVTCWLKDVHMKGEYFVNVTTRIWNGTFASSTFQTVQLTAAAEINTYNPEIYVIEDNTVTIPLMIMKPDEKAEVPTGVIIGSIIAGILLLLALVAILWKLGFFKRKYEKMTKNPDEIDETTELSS

1: synthetic peptide, partial sequence of the EDb-fibronectin domains, SEQ ID NO: 1 (VDITDSSIGLRWTPL) [compound 1]
inhibition of adherence of endothelial cells to ED-B-coated plates (endothelial cells [1]): inhibitory

3: synthetic peptide, partial sequence of the EDb-fibronectin domains, SEQ ID NO: 3 (TGLEPGIDYDISVIT) [compound 3]
inhibition of adherence of endothelial cells to ED-B-coated plates (endothelial cells [1]): inhibitory

ED-B: recombinant His-tagged EDb-fibronectin domain (type III repeat), expressed in E. coli
proliferation of human stromal cells (stromal cells (SC)): could not be increased | splintering of endothelial cells from spheroids ([2]; embedded in collagen, 10 μg/ml bFGF, 6 μg/ml ED-B): further stimulated; also recorded: significant increase in splintering | induction of capillary-like structures (tube formation); penetration of endothelial cells in collagen gels [2]: stimulates | action on human endothelial cell proliferation (endothelial cells (EC); EC/collagen): not as significant as in the flattening-out on gelatin | action on human endothelial cell proliferation (endothelial cells (EC); EC/gelatin): action of ED-B on human endothelial cell proliferation could be determined | action on proliferation of cells (extinction at 490 nm) (endothelial cells (EC); absence of bFGF, MTS assay): no action | adhesion of endothelial cells to coated surfaces (endothelial cells [3]): cells adhere

Fn-7-B-8-9: recombinant fibronectin fragment with domains 7, EDb, 8 and 9
binding of 120-130 kDa surface protein to sepharose-coupled fragment [4]: binds specifically | prominent 120-130 kDa band in eluate of affinity column [5]: cannot be determined

peptide No. 2: synthetic peptide derived from loop 5 of ED-B, SEQ ID NO: 2 (GYYTVTGLEPGIDYD)
induction of capillary-like structures (tube formation); penetration of endothelial cells in collagen gels [2]: maximum effect | inhibition of adherence of endothelial cells to ED-B-coated plates (endothelial cells [1]): inhibitory
